Results taken from US7829586B2, “Aryl-substituted nitrogen-containing heterocyclic compounds” (Banyu Pharmaceutical Co., Ltd., priority 2005, dated 2010).
pIC50: −log10 of the molar value.

Assays:
nociceptin receptor ORL1 [1] = target: T1, nociceptin receptor ORL1 (Homo sapiens, UniProt P41146); assay: Nociceptin receptor binding inhibition assay ([125I]Tyr14-Nociceptin, CHO/ORL1 membrane fractions, SPA); parameters: expressed in transfected cells; membrane fractions; details: CHO/ORL1 membrane fraction, 50 pM [125I]Tyr14-Nociceptin, 37° C., 60 minutes
T1 sequence (P41146 whole entry): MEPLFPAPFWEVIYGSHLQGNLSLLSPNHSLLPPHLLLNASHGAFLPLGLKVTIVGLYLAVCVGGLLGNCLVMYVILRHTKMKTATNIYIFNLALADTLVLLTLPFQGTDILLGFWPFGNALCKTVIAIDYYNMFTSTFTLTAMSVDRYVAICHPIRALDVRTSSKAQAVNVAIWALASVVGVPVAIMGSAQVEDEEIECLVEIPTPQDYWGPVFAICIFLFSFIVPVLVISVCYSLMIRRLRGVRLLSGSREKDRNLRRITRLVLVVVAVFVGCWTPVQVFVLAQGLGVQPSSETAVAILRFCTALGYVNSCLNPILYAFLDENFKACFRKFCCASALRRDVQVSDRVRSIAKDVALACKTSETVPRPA
Experimental: Nociceptin Receptor Binding Inhibition Assay
A cDNA that codes for a human nociceptin receptor gene was cloned into an expression vector pCR3 (by Invitrogen) to prepare pCR3/ORL1. Next, pCR3/ORL1 was transfected in CHO cells using a transfectam (by Nippongene) to obtain a stable expression strain (CHO/ORL1 cells) having resistance against 1 mg/ml G418. Membrane fractions were prepared from this stable expression strain to carry out a receptor binding assay. 11 μg of the membrane fraction, 50 pM [^125I]Tyr^14-Nociceptin (by Amersham Pharmacia), 1 mg of wheatgerm agglutinin SPA beads (PVT based, by Amersham Pharmacia) and each test compound were suspended in an NC buffer (50 mM Hepes, 10 mM sodium chloride, 1 mM magnesium chloride, 2.5 mM calcium chloride, 0.1% BSA, 0.025% bacitracin, pH 7.4) and incubated at 37° C. for 60 minutes, and then the radioactivity of the culture was determined. The binding activity to the nociceptin receptor was indicated by the 50% inhibition concentration (IC50 value) of [^125I]Tyr^14-Nociceptin binding by each test compound.

nociceptin receptor ORL1 [2] = target: T1, nociceptin receptor ORL1; assay: Antagonism against nociceptin-elicited G protein activation (GTPγ[35S] binding, CHO/ORL1 membranes); type: biochemical; parameters: expressed in transfected cells; membrane preparation; details: CHO/ORL1 membrane, 50 nM nociceptin, 200 pM GTPγ[35S], 25° C., 150 minutes
Experimental: Antagonism Against Nociceptin-Elicited G Protein Activation
CHO cells which stably expressed a nociceptin receptor ORL1 were used to investigate the action of each test compound against nociceptin-elicited G protein activation. A membrane prepared from the CHO/ORL1 cells, 50 nM nociceptin, 200 pM GTPγ[^35S] (by NEN), 1.5 mg of wheatgerm agglutinin SPA beads (by Amersham Pharmacia) and each test compound were mixed in a GDP buffer (20 mM Hepes, 100 mM sodium chloride, 10 mM magnesium chloride, 1 mM EDTA, 5 μM GDP, pH 7.4) and incubated at 25° C. for 150 minutes, and then the radioactivity was determined. The antagonism against the nociceptin-elicited G protein activation was shown by the 50% inhibition concentration (IC50 value) of the test compound against GTPγ[^35S] binding.

pIC50 (nociceptin receptor ORL1 [1])	pIC50 (nociceptin receptor ORL1 [2])	Compound
8.12	8.12	Cc1c(CN[C@H]2CC[C@@H](F)C2)n[nH]c1-c1cc(F)cc(F)c1 [Example 8, 5-(3,5-Difluorophenyl)-3-[(1S,3R)-3-fluorocyclopentylamino]methyl-4-methyl-1H-pyrazole]
9.21	9.33	COCc1c(CN[C@H]2CC[C@@H](F)C2)n[nH]c1-c1cc(F)cc(F)c1 [Example 19, 5-(3,5-Difluorophenyl)-3-[(1S,3R)-3-fluorocyclopentylamino]methyl-4-methoxymethyl-1H-pyrazole]
8.17	8.22	CCc1c(CN[C@H]2CC[C@@H](F)CC2)nc(C)n1-c1cc(F)cc(F)c1 [Example 38, 1-(3,5-Difluorophenyl)-4-(cis-4-fluorocyclohexylamino)methyl-5-ethyl-2-methyl-1H-imidazole]

Continued, compound first:

Compound	pIC50 (nociceptin receptor ORL1 [1])	pIC50 (nociceptin receptor ORL1 [2])
Cc1ncc(-c2c(C)c(CN[C@H]3CC[C@@H](F)C3)nn2C(C)C)cc1F [Example 2, 3-[(1S,3R)-3-fluorocyclopentylamino]methyl-5-(5-fluoro-6-methylpyridin-3-yl)-1-isopropyl-4-methyl-1H-pyrazole]	9.04	9.21
Cc1c(CN[C@H]2CC[C@@H](F)C2)nn(CCC#N)c1-c1cc(F)cc(F)c1 [Example 13, 1-(2-Cyanoethyl)-5-(3,5-difluorophenyl)-3-[(1S,3R)-3-fluorocyclopentylamino]methyl-4-methyl-1H-pyrazole]	8.09	8.34
COCc1c(CN[C@H]2CC[C@@H](OC)CC2)n[nH]c1-c1cc(F)cc(F)c1 [Example 34, 5-(3,5-Difluorophenyl)-3-(cis-4-methoxycyclohexylamino)methyl-4-methoxymethyl-1H-pyrazole]	8.96	9.22
